From patent US12673945B2, “3-((8-((1H-pyrazol-4-yl)amino)imidazo[1,2-a]pyridin-3-yl)ethinyl)-n-phenylbenzamide derivative, method for preparing same, and pharmaceutical composition containing same as active ingredient for prevention or treatment of cancer” (DAEGU-GYEONGBUK MEDICAL INNOVATION FOUNDATION, priority 2020, dated 2026)

Tests used:
Test in all cases: scanMAX Kinase panel (DiscoverX)
Assay type in all cases: binding
[1] = target: T1, ABL1(M351T)-phosphorylated (Homo sapiens, UniProt P00519, M351T); settings: read-out: % Cont @ 1 uM
T1 construct: purchased DiscoverX
Method: (§1) Among the example compounds of the present invention, the enzyme (kinase) selectivity of the selected compounds of Examples 1 and 4 was measured by requesting DiscoverX. At this time, the experiment was performed using a panel for scanMAX™ Kinase. The concentration of the drug treated to the enzyme was 1 μM in DMSO, and the percentage control (% control) was determined by the method shown in Equation 1 below. (Example Compound−Positive Control)/(Negative Control−Positive control)×100 [Equation 1]

MUSK = target: T2, MUSK (Homo sapiens, UniProt O15146); settings: read-out: % Cont @ 1 uM
T2 construct: purchased DiscoverX scanMAX Kinase panel
T2 sequence (O15146 24-869): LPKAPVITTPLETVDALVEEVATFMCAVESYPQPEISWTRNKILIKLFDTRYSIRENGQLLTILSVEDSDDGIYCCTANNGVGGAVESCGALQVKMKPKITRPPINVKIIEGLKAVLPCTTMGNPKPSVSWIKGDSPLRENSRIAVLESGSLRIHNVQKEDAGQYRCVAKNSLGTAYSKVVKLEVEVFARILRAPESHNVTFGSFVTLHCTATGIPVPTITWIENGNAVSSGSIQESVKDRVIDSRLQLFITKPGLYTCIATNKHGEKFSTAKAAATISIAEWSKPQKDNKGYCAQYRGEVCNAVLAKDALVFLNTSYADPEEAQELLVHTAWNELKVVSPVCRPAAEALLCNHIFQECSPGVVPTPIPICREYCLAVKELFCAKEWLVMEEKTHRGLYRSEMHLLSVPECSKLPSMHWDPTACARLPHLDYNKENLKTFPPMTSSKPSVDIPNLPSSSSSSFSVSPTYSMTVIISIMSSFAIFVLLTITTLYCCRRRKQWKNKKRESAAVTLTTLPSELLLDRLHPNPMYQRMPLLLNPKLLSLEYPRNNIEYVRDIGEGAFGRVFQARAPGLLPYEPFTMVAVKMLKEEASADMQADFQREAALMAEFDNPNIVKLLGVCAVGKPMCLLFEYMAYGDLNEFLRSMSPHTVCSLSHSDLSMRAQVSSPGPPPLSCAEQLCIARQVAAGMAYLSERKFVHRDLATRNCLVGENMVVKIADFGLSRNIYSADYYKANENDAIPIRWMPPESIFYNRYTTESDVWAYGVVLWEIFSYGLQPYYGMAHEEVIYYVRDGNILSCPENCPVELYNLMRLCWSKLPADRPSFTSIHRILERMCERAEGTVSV
Method: as §1

[2] = target: T3, TYK2(JH1domain-catalytic) (Homo sapiens, UniProt P29597)
T3 construct: TYK2(JH1domain-catalytic); purchased DiscoverX scanMAX Kinase panel
T3 sequence (P29597 897-1176 limits assumed): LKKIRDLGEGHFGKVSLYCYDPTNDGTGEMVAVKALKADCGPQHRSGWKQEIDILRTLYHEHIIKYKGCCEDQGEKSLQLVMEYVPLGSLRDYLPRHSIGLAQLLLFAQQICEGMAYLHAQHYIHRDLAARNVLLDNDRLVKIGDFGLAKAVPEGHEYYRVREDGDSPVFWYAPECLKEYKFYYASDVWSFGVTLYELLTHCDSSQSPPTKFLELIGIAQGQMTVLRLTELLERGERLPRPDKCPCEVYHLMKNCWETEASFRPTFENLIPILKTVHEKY
Method: as §1

EGFR(L747-T751del, Sins) = target: T4, EGFR(L747-T751del, Sins) (Homo sapiens, UniProt P00533, DEL747-750/T751S)
T4 construct: purchased DiscoverX scanMAX Kinase panel
Method: as §1

[3] = target: T5, ABL1(H396P)-nonphosphorylated (Homo sapiens, UniProt P00519, H396P); settings: read-out: % Cont @ 1 uM
T5 construct: purchased DiscoverX
Method: as §1

EGFR(E746-A750del) = target: T6, EGFR(E746-A750del) (Homo sapiens, UniProt P00533, DEL746-750)
T6 construct: purchased DiscoverX scanMAX Kinase panel
Method: as §1

FLT3(N841I) = target: T7, FLT3(N841I) (Homo sapiens, UniProt P36888, N841I); settings: read-out: % Cont @ 1 uM
T7 construct: purchased DiscoverX scanMAX Kinase panel
Method: as §1

SLK = target: T8, SLK (Homo sapiens, UniProt Q9H2G2); settings: read-out: % Cont @ 1 uM
T8 construct: purchased DiscoverX scanMAX Kinase panel
Method: as §1

DLK = target: T9, DLK (Homo sapiens, UniProt Q12852)
T9 construct: purchased DiscoverX scanMAX Kinase panel
Method: as §1

LOK = target: T10, LOK (Homo sapiens, UniProt O94804)
T10 construct: purchased DiscoverX scanMAX Kinase panel
T10 sequence (O94804 whole entry): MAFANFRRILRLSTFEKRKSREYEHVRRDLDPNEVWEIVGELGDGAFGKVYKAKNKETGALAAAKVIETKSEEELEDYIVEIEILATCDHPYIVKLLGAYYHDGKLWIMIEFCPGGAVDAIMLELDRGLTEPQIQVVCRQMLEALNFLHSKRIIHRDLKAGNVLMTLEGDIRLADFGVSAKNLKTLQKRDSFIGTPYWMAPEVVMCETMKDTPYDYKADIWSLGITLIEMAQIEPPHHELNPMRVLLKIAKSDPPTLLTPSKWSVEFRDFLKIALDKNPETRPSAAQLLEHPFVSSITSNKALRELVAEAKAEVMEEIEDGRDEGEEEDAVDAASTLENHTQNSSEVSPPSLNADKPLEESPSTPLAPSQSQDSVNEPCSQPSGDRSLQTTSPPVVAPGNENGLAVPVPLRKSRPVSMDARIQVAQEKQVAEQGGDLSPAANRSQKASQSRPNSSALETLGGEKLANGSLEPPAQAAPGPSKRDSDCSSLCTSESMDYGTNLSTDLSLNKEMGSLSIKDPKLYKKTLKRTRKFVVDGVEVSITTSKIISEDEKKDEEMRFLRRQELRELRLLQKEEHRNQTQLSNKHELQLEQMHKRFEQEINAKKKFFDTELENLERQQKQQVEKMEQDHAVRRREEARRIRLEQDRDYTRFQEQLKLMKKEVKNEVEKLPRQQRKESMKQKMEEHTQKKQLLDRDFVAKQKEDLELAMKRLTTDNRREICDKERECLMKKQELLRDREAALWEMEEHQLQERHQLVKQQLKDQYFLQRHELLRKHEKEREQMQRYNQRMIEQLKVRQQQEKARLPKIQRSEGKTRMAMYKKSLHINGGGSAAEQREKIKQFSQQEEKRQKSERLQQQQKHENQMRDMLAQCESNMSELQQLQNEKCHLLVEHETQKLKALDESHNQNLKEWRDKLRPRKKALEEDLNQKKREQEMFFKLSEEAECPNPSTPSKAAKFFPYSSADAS
Method: as §1

ERBB4 = target: T11, ERBB4 (Homo sapiens, UniProt Q15303); settings: read-out: % Cont @ 1 uM
T11 construct: purchased DiscoverX scanMAX Kinase panel
Method: as §1

CDK11 = target: T12, CDK11 (Homo sapiens, UniProt Q9BWU1)
T12 construct: purchased DiscoverX scanMAX Kinase panel
Method: as §1

RET = target: T13, RET (Homo sapiens, UniProt P07949); settings: read-out: % Cont @ 1 uM
T13 construct: purchased DiscoverX scanMAX Kinase panel
Method: as §1

BRAF(V600E) = target: T14, BRAF(V600E) (Homo sapiens, UniProt P15056, V600E); settings: read-out: % Cont @ 1 uM
T14 construct: purchased DiscoverX scanMAX Kinase panel
Method: as §1

SRC = target: T15, SRC (Homo sapiens, UniProt P12931); settings: read-out: % Cont @ 1 uM
T15 construct: purchased DiscoverX scanMAX Kinase panel
Method: as §1

[4] = target: T16, ABL1(Y253F)-phosphorylated (Homo sapiens, UniProt P00519, Y253F); settings: read-out: % Cont @ 1 uM
T16 construct: purchased DiscoverX scanMAX Kinase panel
Method: as §1

RET(V804M) = target: T17, RET(V804M) (Homo sapiens, UniProt P07949, V804M); settings: read-out: % Cont @ 1 uM
T17 construct: purchased DiscoverX scanMAX Kinase panel
Method: as §1

FLT3(K663Q) = target: T18, FLT3(K663Q) (Homo sapiens, UniProt P36888, K663Q); settings: read-out: % Cont @ 1 uM
T18 construct: purchased DiscoverX scanMAX Kinase panel
Method: as §1

STK36 = target: T19, STK36 (Homo sapiens, UniProt Q9NRP7); settings: read-out: % Cont @ 1 uM
T19 construct: purchased DiscoverX scanMAX Kinase panel
T19 sequence (Q9NRP7 whole entry): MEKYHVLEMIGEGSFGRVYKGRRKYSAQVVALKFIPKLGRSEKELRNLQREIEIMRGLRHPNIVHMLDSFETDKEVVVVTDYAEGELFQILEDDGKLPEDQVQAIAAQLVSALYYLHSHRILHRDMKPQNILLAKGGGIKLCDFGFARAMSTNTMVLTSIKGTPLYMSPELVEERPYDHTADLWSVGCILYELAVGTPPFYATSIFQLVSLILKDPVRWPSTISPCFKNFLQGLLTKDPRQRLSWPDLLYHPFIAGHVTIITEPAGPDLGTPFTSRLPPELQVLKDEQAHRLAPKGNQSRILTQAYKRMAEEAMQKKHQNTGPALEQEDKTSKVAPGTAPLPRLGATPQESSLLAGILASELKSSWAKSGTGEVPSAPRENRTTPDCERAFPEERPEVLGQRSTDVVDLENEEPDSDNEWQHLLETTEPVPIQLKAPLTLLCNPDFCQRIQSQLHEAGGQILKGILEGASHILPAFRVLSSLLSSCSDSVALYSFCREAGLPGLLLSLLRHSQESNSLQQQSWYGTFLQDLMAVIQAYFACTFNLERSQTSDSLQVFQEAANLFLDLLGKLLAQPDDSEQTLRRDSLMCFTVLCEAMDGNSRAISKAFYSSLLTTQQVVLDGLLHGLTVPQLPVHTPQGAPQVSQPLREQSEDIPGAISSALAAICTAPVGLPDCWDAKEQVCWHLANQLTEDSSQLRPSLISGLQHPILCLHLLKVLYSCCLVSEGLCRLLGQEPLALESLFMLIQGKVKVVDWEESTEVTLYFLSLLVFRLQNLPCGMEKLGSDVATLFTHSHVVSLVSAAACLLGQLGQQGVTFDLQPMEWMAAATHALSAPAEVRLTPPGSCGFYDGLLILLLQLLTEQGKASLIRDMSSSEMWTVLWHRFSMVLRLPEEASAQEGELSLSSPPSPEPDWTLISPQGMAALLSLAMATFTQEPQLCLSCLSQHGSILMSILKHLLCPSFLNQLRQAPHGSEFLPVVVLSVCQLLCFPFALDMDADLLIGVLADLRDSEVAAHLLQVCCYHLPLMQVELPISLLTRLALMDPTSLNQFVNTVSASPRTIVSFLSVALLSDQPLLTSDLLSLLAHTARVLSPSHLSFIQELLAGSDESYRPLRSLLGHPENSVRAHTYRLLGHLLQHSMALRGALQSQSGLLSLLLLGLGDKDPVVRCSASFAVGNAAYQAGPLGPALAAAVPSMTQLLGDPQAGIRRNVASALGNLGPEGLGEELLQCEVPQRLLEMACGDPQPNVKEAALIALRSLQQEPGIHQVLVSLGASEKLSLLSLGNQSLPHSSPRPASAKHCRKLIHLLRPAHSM
Method: as §1

ERK8 = target: T20, ERK8 (Homo sapiens, UniProt Q8TD08); settings: read-out: % Cont @ 1 uM
T20 construct: purchased DiscoverX scanMAX Kinase panel
Method: as §1

[5] = target: T21, ABL1(F317L)-phosphorylated (Homo sapiens, UniProt P00519, F317L); settings: read-out: % Cont @ 1 uM
T21 construct: purchased DiscoverX
Method: as §1

[6] = target: T22, ABL1(T315I)-nonphosphorylated (Homo sapiens, UniProt P00519, T315I); settings: read-out: % Cont @ 1 uM
T22 construct: purchased DiscoverX
Method: as §1

ERBB2 = target: T23, ERBB2 (Homo sapiens, UniProt P04626); settings: read-out: % Cont @ 1 uM
T23 construct: purchased DiscoverX scanMAX Kinase panel
Method: as §1

FGR = target: T24, FGR (Homo sapiens, UniProt P09769); settings: read-out: % Cont @ 1 uM
T24 construct: purchased DiscoverX scanMAX Kinase panel
Method: as §1

PFTK1 = target: T25, PFTK1 (Homo sapiens, UniProt O94921)
T25 construct: purchased DiscoverX scanMAX Kinase panel
Method: as §1

TESK1 = target: T26, TESK1 (Homo sapiens, UniProt Q15569); settings: read-out: % Cont @ 1 uM
T26 construct: purchased DiscoverX scanMAX Kinase panel
Method: as §1

p38-gamma = target: T27, p38-gamma (Homo sapiens, UniProt P53778); settings: read-out: % Cont @ 1 uM
T27 construct: purchased DiscoverX scanMAX Kinase panel
Method: as §1

PFCDPK1(P. falciparum) = target: T28, PFCDPK1(P. falciparum) (Plasmodium falciparum, UniProt P62344); settings: read-out: % Cont @ 1 uM
T28 construct: purchased DiscoverX scanMAX Kinase panel
Method: as §1

PCTK2 = target: T29, PCTK2 (Homo sapiens, UniProt Q00537); settings: read-out: % Cont @ 1 uM
T29 construct: purchased DiscoverX scanMAX Kinase panel
Method: as §1

MAP3K2 = target: T30, MAP3K2 (Homo sapiens, UniProt Q9Y2U5); settings: read-out: % Cont @ 1 uM
T30 construct: purchased DiscoverX scanMAX Kinase panel
Method: as §1

ZAK = target: T31, ZAK (Homo sapiens, UniProt Q9NYL2); settings: read-out: % Cont @ 1 uM
T31 construct: purchased DiscoverX scanMAX Kinase panel
T31 sequence (Q9NYL2 whole entry): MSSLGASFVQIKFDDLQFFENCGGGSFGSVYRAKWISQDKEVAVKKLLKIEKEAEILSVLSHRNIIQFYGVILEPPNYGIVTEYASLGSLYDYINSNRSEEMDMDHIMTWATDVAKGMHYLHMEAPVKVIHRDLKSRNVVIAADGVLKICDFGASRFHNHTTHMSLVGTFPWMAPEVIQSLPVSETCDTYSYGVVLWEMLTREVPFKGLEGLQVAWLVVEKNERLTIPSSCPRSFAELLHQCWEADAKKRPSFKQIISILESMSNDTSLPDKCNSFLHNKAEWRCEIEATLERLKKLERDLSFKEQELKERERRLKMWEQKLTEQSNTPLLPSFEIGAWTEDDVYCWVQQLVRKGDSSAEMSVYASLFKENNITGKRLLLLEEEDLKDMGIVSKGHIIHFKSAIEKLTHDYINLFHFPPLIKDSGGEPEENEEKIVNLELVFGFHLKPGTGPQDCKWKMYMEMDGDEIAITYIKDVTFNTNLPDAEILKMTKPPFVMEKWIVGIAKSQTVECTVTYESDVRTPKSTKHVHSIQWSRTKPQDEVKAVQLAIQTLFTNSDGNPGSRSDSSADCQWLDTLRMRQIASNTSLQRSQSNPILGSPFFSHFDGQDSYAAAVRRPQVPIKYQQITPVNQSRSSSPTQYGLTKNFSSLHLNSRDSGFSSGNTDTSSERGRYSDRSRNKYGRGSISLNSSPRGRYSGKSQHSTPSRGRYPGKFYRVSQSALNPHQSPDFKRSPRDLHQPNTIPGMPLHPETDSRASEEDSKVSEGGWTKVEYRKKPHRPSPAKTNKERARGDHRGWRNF
Method: as §1

FGFR3 = target: T32, FGFR3 (Homo sapiens, UniProt P22607); settings: read-out: % Cont @ 1 uM
T32 construct: purchased DiscoverX scanMAX Kinase panel
Method: as §1

MKNK2 = target: T33, MKNK2 (Homo sapiens, UniProt Q9HBH9); settings: read-out: % Cont @ 1 uM
T33 construct: purchased DiscoverX scanMAX Kinase panel
Method: as §1

TRKA = target: T34, TRKA (Homo sapiens, UniProt P04629); settings: read-out: % Cont @ 1 uM
T34 construct: purchased DiscoverX scanMAX Kinase panel
T34 sequence (P04629 33-796): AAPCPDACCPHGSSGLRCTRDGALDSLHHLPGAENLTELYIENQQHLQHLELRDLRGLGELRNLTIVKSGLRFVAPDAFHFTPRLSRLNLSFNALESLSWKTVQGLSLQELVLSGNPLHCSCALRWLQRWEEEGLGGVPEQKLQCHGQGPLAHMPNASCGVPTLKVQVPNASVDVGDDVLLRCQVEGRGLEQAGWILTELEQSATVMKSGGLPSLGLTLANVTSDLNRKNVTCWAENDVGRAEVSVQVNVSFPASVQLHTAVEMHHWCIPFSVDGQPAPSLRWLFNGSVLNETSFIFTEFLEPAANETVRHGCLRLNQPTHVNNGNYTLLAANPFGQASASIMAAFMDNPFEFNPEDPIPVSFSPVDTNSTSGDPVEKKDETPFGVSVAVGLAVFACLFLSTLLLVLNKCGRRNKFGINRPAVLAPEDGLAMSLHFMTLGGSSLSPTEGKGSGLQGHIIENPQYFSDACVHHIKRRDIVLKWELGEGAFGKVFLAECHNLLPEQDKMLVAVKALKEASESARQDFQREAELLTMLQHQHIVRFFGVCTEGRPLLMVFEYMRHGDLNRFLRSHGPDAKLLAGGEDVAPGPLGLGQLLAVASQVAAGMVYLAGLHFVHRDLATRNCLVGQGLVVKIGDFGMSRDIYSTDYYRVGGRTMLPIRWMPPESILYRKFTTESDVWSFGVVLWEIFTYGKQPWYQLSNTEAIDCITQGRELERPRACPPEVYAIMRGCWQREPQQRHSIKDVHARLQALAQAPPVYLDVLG
Method: as §1

FER = target: T35, FER (Homo sapiens, UniProt P16591); settings: read-out: % Cont @ 1 uM
T35 construct: purchased DiscoverX scanMAX Kinase panel
Method: as §1

MET(Y1235D) = target: T36, MET(Y1235D) (Homo sapiens, UniProt P08581, Y1235D)
T36 construct: purchased DiscoverX scanMAX Kinase panel
Method: as §1

EGFR(G719S) = target: T37, EGFR(G719S) (Homo sapiens, UniProt P00533, G719S)
T37 construct: purchased DiscoverX scanMAX Kinase panel
Method: as §1

| SMILES | remaining binding at 1 µM [1] | remaining binding at 1 µM (MUSK) | % Cont @ 1 uM [2] | % Cont @ 1 uM (EGFR(L747-T751del, Sins)) | remaining binding at 1 µM [3] | % Cont @ 1 uM (EGFR(E746-A750del)) | remaining binding at 1 µM (FLT3(N841I)) | remaining binding at 1 µM (SLK) | % Cont @ 1 uM (DLK) | % Cont @ 1 uM (LOK) | remaining binding at 1 µM (ERBB4) | % Cont @ 1 uM (CDK11) | remaining binding at 1 µM (RET) | remaining binding at 1 µM (BRAF(V600E)) | remaining binding at 1 µM (SRC) | remaining binding at 1 µM [4] | remaining binding at 1 µM (RET(V804M)) | remaining binding at 1 µM (FLT3(K663Q)) | remaining binding at 1 µM (STK36) | remaining binding at 1 µM (ERK8) | other results |
| --- | --- | --- | --- | --- | --- | --- | --- | --- | --- | --- | --- | --- | --- | --- | --- | --- | --- | --- | --- | --- | --- |
| Cc1cn(-c2cc(NC(=O)c3cc(C#Cc4cnc5c(Nc6cnn(C)c6)cccn45)c(C)cc3F)cc(C(C)(C)C#N)c2)cn1 [Example 1, N-(3-(2-cyanopropane-2-yl)-5-(4-methyl-1H-imidazol-1-yl)phenyl)-2-fluoro-4-methyl-5-((8-((1-methyl-1H-pyrazol-4-yl)amino)imidazo[1,2-a]pyridin-3-yl)ethynyl)benzamide] | 0.25% | 5% | 33% | 11% | 1.2% | 0% | 0% | 1.2% | 5.9% | 0.05% | 18% | 14.8% | 0% | 15% | 0.1% | 0.15% | 0.35% | 10.8% | 20% | 19% | remaining binding at 1 µM [5]: 0%; remaining binding at 1 µM [6]: 8.9%; remaining binding at 1 µM (ERBB2): 34%; remaining binding at 1 µM (FGR): 3.5%; % Cont @ 1 uM (PFTK1): 8.3%; remaining binding at 1 µM (TESK1): 33%; remaining binding at 1 µM (p38-gamma): 17%; remaining binding at 1 µM (PFCDPK1(P. falciparum)): 12%; remaining binding at 1 µM (PCTK2): 23%; remaining binding at 1 µM (MAP3K2): 34%; remaining binding at 1 µM (ZAK): 1.5%; remaining binding at 1 µM (FGFR3): 23%; remaining binding at 1 µM (MKNK2): 0.7%; remaining binding at 1 µM (TRKA): 0.6%; remaining binding at 1 µM (FER): 10%; % Cont @ 1 uM (MET(Y1235D)): 17%; % Cont @ 1 uM (EGFR(G719S)): 16% |
| Cc1cn(-c2cc(NC(=O)c3cc(C#Cc4cnc5c(Nc6cnn(C)c6)cccn45)c(C)cc3F)cc(C(F)(F)F)c2)cn1 [Example 4, 2-fluoro-4-methyl-N-(3-(4-methyl-1H-imidazol-1-yl)-5-(trifluoromethyl)phenyl)-5-((8-((1-methyl-1H-pyrazol-4-yl)amino)imidazo[1,2-a]pyridin-3-yl)ethynyl)benzamide] | 10% | 46% | 72% | 28% | 2.9% | 56% | 0% | 34% | 89% | 0.2% | 46% | 55% | 0.2% | 48% | 1.4% | 5.9% | 4.3% | 2.8% | 45% | 90% | remaining binding at 1 µM [5]: 1.2%; remaining binding at 1 µM [6]: 10%; remaining binding at 1 µM (ERBB2): 65%; remaining binding at 1 µM (FGR): 12%; % Cont @ 1 uM (PFTK1): 94%; remaining binding at 1 µM (TESK1): 100%; remaining binding at 1 µM (p38-gamma): 88%; remaining binding at 1 µM (PFCDPK1(P. falciparum)): 48%; remaining binding at 1 µM (PCTK2): 85%; remaining binding at 1 µM (MAP3K2): 87%; remaining binding at 1 µM (ZAK): 8.1%; remaining binding at 1 µM (FGFR3): 88%; remaining binding at 1 µM (MKNK2): 96%; remaining binding at 1 µM (TRKA): 2.6%; remaining binding at 1 µM (FER): 71%; % Cont @ 1 uM (MET(Y1235D)): 87%; % Cont @ 1 uM (EGFR(G719S)): 65% |
